*1 amine or outer side, *2 acyl side, *3 side chain or, on linkers, in order; H or OH if unused. Where a SMILES comes first, the peptide text is derived from it. Bridges are numbered along the chain shown (N, C = ends). [ ]: non-standard residue; d: D form. The star is where a group is joined. hPhe(3,5-F2-4-CF3) = N[C@@H](CCc1cc(F)c(C(F)(F)F)c(F)c1)C(=O)O; NPrPhe(4-CF3) = CCCN[C@@H](Cc1ccc(C(F)(F)F)cc1)C(=O)O; X16 = O=C([C@@H](N[*:1])C1CC(F)(F)C1)[*:2]; NMeGly(cPent) = CN[C@H](C(=O)O)C1CCCC1; NMeD = CN[C@@H](CC(=O)O)C(=O)O; NMeL = CN[C@@H](CC(C)C)C(=O)O; Morpholide = C1CN(*)CCO1; Ac5c = NC1(C(=O)O)CCCC1; Sar = CNCC(=O)O

Experiment [1] addresses GDP-bound NRAS wild-type protein (Homo sapiens, UniProt P01111). As to the kind of experiment: Binding to NRAS by surface plasmon resonance (SPR), Single Cycle Kinetics. (In general: Surface plasmon resonance follows binding to a sensor surface in real time, without labels.)
For experiment [2], the target named is GDP-bound HRAS wild-type protein (Homo sapiens, UniProt P01112). Put plainly: Binding to HRAS by surface plasmon resonance (SPR), Single Cycle Kinetics.
Chain of GDP-bound HRAS wild-type protein (P01112 whole entry): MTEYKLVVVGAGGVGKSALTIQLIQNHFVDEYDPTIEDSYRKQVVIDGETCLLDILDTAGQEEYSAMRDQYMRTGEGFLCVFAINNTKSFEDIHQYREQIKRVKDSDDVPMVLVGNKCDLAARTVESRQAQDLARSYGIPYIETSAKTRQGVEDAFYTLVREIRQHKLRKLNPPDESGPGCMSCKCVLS
Setting [3] is: KD ratio, GDP-bound NRAS wild-type vs GDP-bound KRAS wild-type, SPR.
The mark [4] stands for this setting: KD ratio, GDP-bound HRAS wild-type vs GDP-bound KRAS wild-type, SPR.

Chain of GDP-bound NRAS wild-type protein (P01111 whole entry): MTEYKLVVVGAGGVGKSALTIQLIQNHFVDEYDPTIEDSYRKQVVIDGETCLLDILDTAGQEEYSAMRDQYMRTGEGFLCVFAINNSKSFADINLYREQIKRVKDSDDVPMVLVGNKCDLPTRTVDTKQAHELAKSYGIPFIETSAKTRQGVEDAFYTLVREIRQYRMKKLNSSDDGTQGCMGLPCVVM

Consider `C#CCN1CC(=O)N(C)[C@H]2C/C=C\CCN(C2=O)[C@@H](Cc2ccc(C)cc2)C(=O)N(C)CC(=O)N[C@@H](CCc2ccc(C(F)(F)F)c(Cl)c2)C(=O)N2C[C@H](OCC)C[C@H]2C(=O)NC2(CC(C)(C)C2)C(=O)N(C)[C@@H](C2CCCC2)C(=O)N(C)[C@H](C(=O)N(C)C)CC(=O)N(C)[C@@H](CCC)C(=O)N[C@@H](CC(C)C)C1=O` [PP2526], for which the “NRAS/KRAS (ratio of KD value with respect to GDP-bound NRAS wild-type protein to KD value with respect to KRAS)” value in experiment [1] (class symbols) was “A (a compound having 10 or more and less than 20 is denoted as A)”. Also, the “HRAS/KRAS (ratio of KD value with respect to GDP-bound HRAS wild-type protein to KD value with respect to KRAS)” value in experiment [2] (class symbols) was “B (a compound having 3 or more and less than 10 is denoted as B)”.
Consider `CC[C@H](C)[C@@H]1NC(=O)[C@H](CC)N(C)C(=O)C[C@@H](C(=O)N(C)CC)N(C)C(=O)[C@H](C2CCCC2)N(C)C(=O)C2(CC(C)(C)C2)NC(=O)[C@@H]2C[C@@H](C)CN2C(=O)[C@H](CCc2ccc(C(F)(F)F)c(Cl)c2)NC(=O)CN(C)C(=O)[C@H](Cc2ccc(C)cc2)N2CC/C=C\C[C@@H](C2=O)N(C)C(=O)CN(C)C1=O` [PP1876], for which the “NRAS/KRAS (ratio of KD value for NRAS to KD value for KRAS)” value in experiment [1] (setting [3]) was “A (a compound having 10 or more and less than 20 is denoted as A)”. Also, in experiment [2] (setting [4]), the “HRAS/KRAS (ratio of KD value for HRAS to KD value for KRAS)” value was “A (a compound having 10 or more and less than 20 is denoted as A)”.
Regarding `CCCO[C@@H]1CCN2C(=O)[C@H](CCc3cc(F)c(C(F)(F)F)c(F)c3)NC(=O)CN(C)C(=O)[C@H](Cc3ccc(C(F)(F)F)cc3)N3CCCCC[C@@H](C3=O)N(C)C(=O)CN(C)C(=O)[C@H]([C@@H](C)CC)NC(=O)[C@H](CC(C)C)N(C)C(=O)C[C@@H](C(=O)N3CCOCC3)N(C)C(=O)[C@H](C3CCCC3)N(C)C(=O)C3(CCC3)NC(=O)[C@H]12` [PP1083], the “NRAS/KRAS (ratio of KD value with respect to NRAS to KD value with respect to KRAS)” value in experiment [1] (setting [3]) is “B (a compound having 3 or more and less than 10 is denoted as B)”. Moreover, the “HRAS/KRAS (ratio of KD value with respect to HRAS to KD value with respect to KRAS)” value in experiment [2] (setting [4]) is “B (a compound having 3 or more and less than 10 is denoted as B)”.
On to `CCO[C@@H]1C[C@H]2C(=O)NC3(CCC3)C(=O)N(C)[C@@H](C3CCCC3)C(=O)N(C)[C@H](C(=O)N(C)C)CC(=O)N(C)[C@@H](CC3CCCC3)C(=O)N[C@@H]([C@@H](C)CC)C(=O)N(C)CC(=O)N(C)[C@H]3C/C=C\CCN(C3=O)[C@@H](Cc3ccc(C)cc3)C(=O)N(C)CC(=O)N[C@@H](CCc3ccc(CC)c(F)c3)C(=O)N2C1` [PP2686], for which the “NRAS/KRAS (ratio of KD value with respect to GDP-bound NRAS wild-type protein to KD value with respect to KRAS)” value in experiment [1] (class symbols) was “A (a compound having 10 or more and less than 20 is denoted as A)”. The “HRAS/KRAS (ratio of KD value with respect to GDP-bound HRAS wild-type protein to KD value with respect to KRAS)” value in experiment [2] (class symbols) is “A (a compound having 10 or more and less than 20 is denoted as A)”.
As to `CC[C@H](C)[C@@H]1NC(=O)[C@H](CC(C)C)N(C)C(=O)C[C@@H](C(=O)N2CCOCC2)N(C)C(=O)[C@H](C2CCCC2)N(C)C(=O)C2(CCCC2)NC(=O)[C@@H]2CCCN2C(=O)[C@H](CCc2cc(F)c(C(F)(F)F)c(F)c2)NC(=O)CN(C)C(=O)[C@H](Cc2ccc(C(F)(F)F)cc2)N2CCCC[C@@H](C2=O)N(C)C(=O)[C@H](C)N(C)C1=O` [PP0544], in experiment [1] (SPR), the “NRAS/KRAS (ratio of KD value with respect to GDP-bound NRAS wild-type protein to KD value with respect to KRAS)” value was “B (a compound having 3 or more and less than 10 is denoted as B)”. The “HRAS/KRAS (ratio of KD value with respect to GDP-bound HRAS wild-type protein to KD value with respect to KRAS)” value in experiment [2] (SPR) was “B (a compound having 3 or more and less than 10 is denoted as B)”.
As to `CCCN1C(=O)CN(C)C(=O)CN(C)C(=O)[C@H](C2CC(F)(F)C2)NC(=O)[C@H](CC(C)C)N(C)C(=O)C[C@@H](C(=O)N2CCOCC2)N(C)C(=O)[C@H](C2CCCC2)N(C)C(=O)C2(CCCC2)NC(=O)[C@@H]2CCCN2C(=O)[C@H](CCc2cc(F)c(C(F)(F)F)c(F)c2)NC(=O)CN(C)C(=O)[C@@H]1Cc1ccc(C(F)(F)F)cc1` [PP0769] ([NMeL][X16][Sar][Sar][NPrPhe(4-CF3)][Sar][hPhe(3,5-F2-4-CF3)]P[Ac5c][NMeGly(cPent)][NMeD]-Morpholide; lactam N-11), the “NRAS/KRAS (ratio of KD value with respect to GDP-bound NRAS wild-type protein to KD value with respect to KRAS)” value in experiment [1] (SPR) was “B (a compound having 3 or more and less than 10 is denoted as B)”. In experiment [2] (SPR), the “HRAS/KRAS (ratio of KD value with respect to GDP-bound HRAS wild-type protein to KD value with respect to KRAS)” value is “C (A compound having a KD ratio of 0.1 or more and less than 3 is denoted as C)”.
For `CCC(CC)[C@H]1C(=O)N(C)[C@H](C(=O)N(C)C)CC(=O)N(C)[C@@H](COC)C(=O)N[C@@H]([C@@H](C)CC)C(=O)N(C)CC(=O)N(C)[C@H]2C/C=C\CCN(C2=O)[C@@H](Cc2ccc(C(F)F)cc2)C(=O)N(C)CC(=O)N[C@@H](CCc2ccc(Cl)c(Cl)c2)C(=O)N2C[C@H](OC3CCCC3)C[C@H]2C(=O)NC2(CC(C)(C)C2)C(=O)N1C` [PP2649], the “NRAS/KRAS (ratio of KD value with respect to GDP-bound NRAS wild-type protein to KD value with respect to KRAS)” value in experiment [1] (class symbols) was “AA (a compound having 20 or more is denoted as AA)”. For the same compound, in experiment [2] (class symbols), the “HRAS/KRAS (ratio of KD value with respect to GDP-bound HRAS wild-type protein to KD value with respect to KRAS)” value was “A (a compound having 10 or more and less than 20 is denoted as A)”.

For the origin of these results see patent US20250230193A1, “CYCLIC COMPOUND HAVING SELECTIVE KRAS INHIBITORY EFFECT ON HRAS AND NRAS” (CHUGAI SEIYAKU KABUSHIKI KAISHA, priority 2022, published 2025).
